Measured values published in US20260199496A1, “LINKER, LINKER-CONTAINING ANTIBODY DRUG CONJUGATE, AND PREPARATION METHOD THEREFOR AND USE THEREOF” (CHENGDU CHIPSCREEN NEWWAY BIOSCIENCES CO., LTD., priority 2022, published 2026).
pIC50, pKd: −log10 of the molar value. “And” between values parts separate entries of the source, which are not always exact repeats. Equal values may be shown once. One block for each compound: values may come before it.

Experiments:
[1] = system: CT26 hPD-L1-EX cells; experiment: Inhibition of CT26 hPD-L1-EX cell proliferation (CCK8); assay type: cell-based; conditions: 2 days, CCK8, replicate wells; for Inhibition % / OD450: 10 μM
Experimental: (1) CT26 hPD-L1-EX cells were collected, and 20 μL was taken for cell counting. (2) The cells were resuspended to 2×10^5 cells/mL. (3) The cell suspension was added to a 96-well plate at 50 μL/well (1×10^4 cells/well), followed by overnight culture at 37° C. with 5% CO2. (4) The next day, the 96-well plate was taken out. The test sample was diluted with complete medium containing 10% FBS and then added to the plate at 50 µL/well to achieve a final sample concentration of 10 μM. The day of test sample addition was designated as day 0. The cells were cultured at 37° C. with 5% CO2 for another 2 days. (5) Day 2: The cell growth status was observed under a microscope, and then CCK8 was added at 10 μL/well. The cells were then cultured at 37° C. with 5% CO2 for another 4 h. (6) Absorbance values at 450 nm (OD450) were measured in real-time using a microplate reader.

[2] = system: CT26 hPD-L1-EX cells; experiment: Inhibition of CT26 hPD-L1-EX cell proliferation (MTS); assay type: cell-based; conditions: replicate wells; for Inhibition % / OD490: 5 μM, 48 h
Experimental: (1) CT26 hPD-L1-EX cells were collected, and 20 μL was taken for cell counting. (2) The cells were resuspended to 0.5×10^5 cells/mL and 0.5×10^5 cells/mL (5 mL each). (3) The cell suspensions were respectively added to two 96-well plates at 50 μL/well, followed by overnight culture at 37° C. with 5% CO2. (4) The ADC sample was diluted according to predetermined concentrations and added to the well plates at 100 μL/well. (5) The cells were cultured at 37° C. with 5% CO2 for 48 h. (6) 50 μL of culture medium was first aspirated and discarded, and then an MTS reagent was added at 20 μL/well. The cells were cultured at 37° C. with 5% CO2 for another 1-4 h. (7) Readings were taken at 490 nm.

[3] = system: A375-hPDL1-Luciferase cells; experiment: Inhibition of A375 in co-culture with human PBMCs (luciferase); assay type: cell-based; conditions: PBMC:A375 E:T 5:1, Matrigel, 6 days
Experimental: Cryopreserved PBMCs were taken out from a liquid nitrogen tank and added to 8 mL of pre-heated RPMI 1640 medium, and the mixture was centrifuged at 500 g for 10 min. The supernatant was discarded, and the PBMCs were resuspended in a small amount of RPMI 1640 medium. Then, the cell suspension was 10-fold diluted, and 20 μL of dilution was taken for cell counting. The cells were resuspended to 5E6 cells/mL. The A375-hPDL1-Luciferase cell suspension was collected, and 20 μL was taken for cell counting. The cells were resuspended to 1E6 cells/mL. The PBMC and A375-hPDL1-Luciferase cell suspensions were mixed at equal volumes to prepare a cell mixture with an E:T ratio of 5:1, and the mixture was adjusted to a total volume of 1500 L using RPMI 1640 complete medium. Matrigel was thawed on ice, and 1500 L of the thawed Matrigel was mixed with the cell mixture. The resulting mixture was added to a black 384-well plate at 20 μL/well, which was then placed at 37° C. for 10 min for solidification. […] The dilutions were added to the 384-well plate at 30 μL/well, and the cells were cultured at 37° C. with 5% CO2 for 6 days. Then, the 384-well plate was taken out, and Bio-Lite Luciferase Assay System was added at 20 μL/well. The mixture was incubated for 5-10 min and then assayed using a multi-mode microplate reader. The results are shown in FIG. 31, FIG. 32, and Table 7.

[4] = target: Cyno PD-L1-his; experiment: SPR (Biacore T200) affinity for Cyno PD-L1-his; set-up: species or system cynomolgus monkey; conditions: ligand Cyno PD-L1-His, 1:1 binding model
Experimental: (§1) […] Cyno PD-L1-his was captured onto the chip surface. The antibody-drug conjugate samples and the naked antibody sample were 2-fold diluted with 1×PBST to give a total of 7 concentration points, with the sample concentrations all being 25 nM-0.39 nM. The program was set. The samples were then loaded, and the program was executed. Data were analyzed using the Biacore Evaluation Software with the 1:1 binding model for kinetic fitting. The above steps were repeated. 2 μg/mL hPD-L1-his, 5 μg/mL mPD-L1-his, and 5 µg/mL Rat PD-L1-his were captured onto the chip surface separately. The above 4 samples were 2-fold diluted with 1×PBST. […] The program was set. The samples were then loaded, and the program was executed. Data were analyzed using the Biacore Evaluation Software with the 1:1 binding model for kinetic fitting.

[5] = target: mPD-L1-his (Mus musculus, UniProt Q9EP73); experiment: SPR (Biacore T200) affinity for mPD-L1-his; conditions: ligand mPD-L1-His, 1:1 binding model
Sequence of mPD-L1-his (Q9EP73 19-290): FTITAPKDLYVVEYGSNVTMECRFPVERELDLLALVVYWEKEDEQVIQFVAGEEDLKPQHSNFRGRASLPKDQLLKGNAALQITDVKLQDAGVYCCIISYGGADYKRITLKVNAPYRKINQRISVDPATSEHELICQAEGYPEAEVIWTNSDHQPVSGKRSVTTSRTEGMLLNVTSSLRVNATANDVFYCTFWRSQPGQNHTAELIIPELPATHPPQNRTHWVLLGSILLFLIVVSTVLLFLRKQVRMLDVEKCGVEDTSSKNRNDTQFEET
Experimental: The program was set. The samples were then loaded, and the program was executed. Data were analyzed using the Biacore Evaluation Software with the 1:1 binding model for kinetic fitting. The above steps were repeated. 2 μg/mL hPD-L1-his, 5 μg/mL mPD-L1-his, and 5 g/mL Rat PD-L1-his were captured onto the chip surface separately. The above 4 samples were 2-fold diluted with 1×PBST. […] The program was set. The samples were then loaded, and the program was executed. Data were analyzed using the Biacore Evaluation Software with the 1:1 binding model for kinetic fitting.

[6] = target: Rat PD-L1-his (Rattus norvegicus, UniProt D4AE25); experiment: SPR (Biacore T200) affinity for Rat PD-L1-his; conditions: ligand Rat-PD-L1-His, 1:1 binding model
Sequence of Rat PD-L1-his (D4AE25 1-290): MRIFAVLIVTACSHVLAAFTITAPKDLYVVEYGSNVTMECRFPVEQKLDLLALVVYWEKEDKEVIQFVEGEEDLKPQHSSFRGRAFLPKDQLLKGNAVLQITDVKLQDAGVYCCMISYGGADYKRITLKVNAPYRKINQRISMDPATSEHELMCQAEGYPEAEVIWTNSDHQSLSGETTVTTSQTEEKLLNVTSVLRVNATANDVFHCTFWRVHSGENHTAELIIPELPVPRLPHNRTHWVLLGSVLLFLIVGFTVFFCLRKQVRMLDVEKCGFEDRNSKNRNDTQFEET
Experimental: as §1

[7] = system: NCI-H292 cells; experiment: Internalization in human lung cancer cell line NCI-H292; assay type: cell-based; conditions: NCI-H292, 150 nM, 2 h, 4 h, 22 h; FIG. 28
Experimental: (1) NCI-H292 cells were collected, and 20 µL was taken for cell counting. (2) The cells were resuspended to 6×10^6 cells/mL, and the cell suspension was added into two 1.5-mL EP tubes at 100 μL/tube. (3) Diluted antibody-drug conjugate (ADC) group and antibody group samples were added separately at 100 L/tube, achieving a final sample concentration of 150 nM. The mixtures were thoroughly mixed and then incubated at 4° C. in the dark for 1 h. (4) The mixtures were washed twice with pre-cooled PBS and centrifuged at 1200 rpm for 5 min at 4° C., and then the supernatants were discarded. (5) Complete medium was added at 300 μL/tube to resuspend the cells, and the cell suspensions were separately transferred to new EP tubes at 150 L/tube, with one tube kept at 4° C. and the other incubated at 37° C. (6) After 2 h, 4 h, and 22 h, 50 L of cell suspension was collected from each of the 4° C. and 37° C. tubes, transferred to new EP tubes, mixed with 1 mL of pre-cooled PBS, and centrifuged at 1200 rpm for 5 min at 4° C., and then the supernatants were discarded. […] (9) Pre-cooled PBS was then added at 100 L/tube to resuspend the cells, and the cell suspensions were analyzed on a machine. (10) The internalization rate was calculated using the following formula: Internalization (%)=positive rate4° C. […]

[8] = system: MC38 tumor; experiment: C57BL/6J mouse MC38 tumor model, ADC vs naked antibody (18.1); assay type: in vivo; conditions: 10 mg/kg intraperitoneal, three times per week, day 7 post-administration
Experimental: 18.1. The specific procedures were as follows: On the day of cell inoculation, each C57BL/6J mouse was subcutaneously inoculated with 3×10^5 MC38 cells (0.1 mL/mouse). When the average tumor volume in mice reached about 70-80 mm^3, grouping was performed. A total of 24 mice were divided into 3 groups, and drug administration began on the day of grouping. The administration regimen was three times per week, and the route of administration was intraperitoneal injection. […] The vehicle control group was intraperitoneally injected with an equivalent volume of PBS solution. After the start of administration, the body weight and tumor volume were measured three times per week. The tumor volume was calculated as: tumor volume (mm^3)=0.5×long diameter of tumor×(short diameter of tumor)^2. The experiment was terminated on day 7 post-administration. All mice were euthanized, and tumor tissues were collected and weighed.

[9] = target: hPD-L1-his (Homo sapiens, UniProt Q9NZQ7); experiment: SPR (Biacore T200) affinity for hPD-L1-his; conditions: 1:1 binding model
Sequence of hPD-L1-his (Q9NZQ7 19-290): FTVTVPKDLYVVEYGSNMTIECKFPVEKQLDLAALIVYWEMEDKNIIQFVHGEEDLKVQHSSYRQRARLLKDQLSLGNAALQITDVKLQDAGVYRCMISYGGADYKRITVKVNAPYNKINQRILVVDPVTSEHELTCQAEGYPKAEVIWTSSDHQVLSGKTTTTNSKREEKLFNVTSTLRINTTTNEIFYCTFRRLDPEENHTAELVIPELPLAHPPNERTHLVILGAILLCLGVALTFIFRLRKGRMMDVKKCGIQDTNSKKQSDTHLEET
Experimental: The procedures were as follows: A CM5 chip was activated with N-hydroxysuccinimide (NHS) and 1-ethyl-3-(3-dimethylaminopropyl)carbodiimide hydrochloride (EDC) at a 1:1 (v/v) ratio. Then, an anti-his antibody was immobilized, and the chip was blocked. 1 g/mL hPD-L1-his was captured onto the chip surface. […] The program was set. The samples were then loaded, and the program was executed. Data were analyzed using the Biacore Evaluation Software with the 1:1 binding model for kinetic fitting.

[10] = Table 3-1, ligand hPD-L1-His captured

pIC50 [3]: 6.08
Compound: Nc1cc(F)ccc1NC(=O)c1ccc(CNC(=O)/C=C/c2cccnc2)cc1 [Chidamide, reference compound]
Inhibition % [1]: 14.58% and 12.16%
OD450 [1]: 1.9014 and 1.9554 and 1.7934
inhibition at 10 µM ([1]; Mus musculus, CT26, 48 h): 19.4%
Inhibition % [2]: 11.73%
OD490 [2]: 1.0283 and 1.0841
inhibition at 5 µM ([2]; Mus musculus, CT26, 48 h): 16.1%

pKd [4]: 10.08
kd [4]: 0.00013 s⁻¹
ka [5]: 1.76e+06 M⁻¹ s⁻¹
kd [5]: 0.000119 s⁻¹
ka [6]: 2.86e+06 M⁻¹ s⁻¹
kd [6]: 0.000981 s⁻¹
ka [9, 10]: 1.26e+06 M⁻¹ s⁻¹
kd (1/s) [9, 10]: <10^−5 1/s
ka ([9]; Table 3-2, ligand hPD-L1-His): 2.46e+06 M⁻¹ s⁻¹
kd ([9]; Table 3-2, ligand hPD-L1-His): <1e-05 s⁻¹
Compound: atezolizumab [Ate antibody]
Inhibition % [1]: 13.08% and 4.39% and 10.94%
OD450 [1]: 2.1282 and 1.9824 and 1.9349
Inhibition % [2]: 4.42% and 5.66%
OD490 [2]: 1.1715 and 1.1587
ka [4]: 1.58e+06 M⁻¹ s⁻¹
tumor cell internalization rate [7]: increased over time
tumor growth inhibition rate TGI (%) [8]: 16.26%
tumor volume [8]: 701.09 mm^3
